Patent publication US9271978B2 (Zenith Epigenetics Corp., priority 2012, dated 2016)

What was measured:
[1] = test system: hIL-6 mRNA; assay: Inhibition of hIL-6 mRNA transcription in U937 cells; assay type: cell-based, human; design: key: Active: Compounds with an IC50 value less than 30 μM were deemed to be active.; Not Active: Compounds with an IC50 value less than 30 μM were deemed to be active; conditions: LPS stimulation, active = IC50 <30 μM
Summary of the method: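 Readout is one-step real-time PCR of hIL-6 mRNA, normalized to an internal control and given as fold induction versus control. Cells: PMA (60 ng/mL, 3 days)-differentiated U937 macrophages, compound added 1 h before 1 ug/mL LPS, harvested after 3 h at 37° C.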

[2] = test system: ApoA-I mRNA; assay: Up-regulation of hApoA-1 mRNA transcription in Huh7 cells; assay type: cell-based, human; design: key: Active: Compounds with an EC170 value less than 30 μM were deemed to be active; conditions: 48 h treatment, ApoA-I mRNA by real-time PCR, Active = EC170 less than 30 μM
Method: In this example, ApoA-I mRNA in tissue culture cells was quantitated to measure the transcriptional up-regulation of ApoA-I when treated with a compound of the present disclosure.
Huh7 cells (2.5×10^5 per well) were plated in a 96-well plate using 100 μL DMEM per well, (Gibco DMEM supplemented with penicillin/streptomycin and 10% FBS), 24 h before the addition of the compound of interest. After 48 h treatment, the spent media was removed from the Huh-7 cells and placed on ice (for immediate use) or at −80° C. (for future use) with the “LDH cytotoxicity assay Kit II” from Abcam. The cells remaining in the plate were rinsed with 100 μL PBS.
Then 85 μL of cell lysis solution was added to each well and incubated for 5-10 min at room temperature, to allow for complete cell lysis and detachment. mRNA was then prepared using the “mRNA Catcher PLUS plate” from Life Technologies, according to the protocol supplied. After the last wash, as much wash buffer as possible was aspirated without allowing the wells to dry. Elution Buffer (E3, 80 μL) was then added to each well. mRNA was then eluted by incubating the mRNA Catcher PLUS plate with Elution Buffer for 5 min at 68° C., and then 1 min at 4° C. Catcher plates with mRNA eluted were kept on ice for use or stored at −80° C.
The eluted mRNA isolated was then used in a one-step real-time PCR reaction, using components of the Ultra Sense Kit together with Life Technologies primer-probe mixes. Real-time PCR data was analyzed, using the Ct values, to determine the fold induction of each unknown sample, relative to the control (that is, relative to the control for each independent DMSO concentration).
Compounds with an EC170 value less than 30 μM were deemed to be active.

[3] = test system: c-myc; assay: Inhibition of c-myc expression in MV4-11 cells (mRNA, real-time PCR); assay type: cell-based; design: key: Active: Compounds with an IC50 value less than 30 μM were deemed to be active.; Not Active: Compounds with an IC50 value less than 30 μM were deemed to be active; conditions: Human AML MV4-11 cells, 3 h incubation
Summary of the method: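 Duplex RT-qPCR of c-myc against cyclophilin cDNA gave IC50 from a dose–response curve. Input was isolated mRNA from 2.5×10^4 MV4-11 cells after 3 h exposure at 37 °C to compound or 0.1% DMSO vehicle.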

[4] = test system: human AML MV-4-11 (CRL-9591) cells; assay: Inhibition of cell proliferation in MV4-11 cells; assay type: cell-based; design: key: Active: Compounds with an IC50 value less than 30 μM were deemed to be active.; Not Active: Compounds with an IC50 value less than 30 μM were deemed to be active; conditions: human AML MV-4-11 cells, 72 h; active = IC50 <30 μM
Summary of the method: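 IC50 values come from blank-corrected proliferation relative to DMSO controls, read as 490 nm absorbance 3–4 h after CellTiter Aqueous One addition. Before that, cells seeded at 5×10^4/well were exposed for 72 h (37° C, 5% CO2) to triplicate two-fold compound dilutions spanning 30–0.2 μM.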

[5] = biological target: T1, Brd4 bromodomain 1 (BRD4(1)) (Homo sapiens, UniProt O60885); assay: Inhibition of tetra-acetylated histone H4 binding to Brd4 bromodomain 1 (TR-FRET); design: key: Active: Compounds with an IC50 value less than 30 μM were deemed to be active.; Not Active: Compounds with an IC50 value less than 30 μM were deemed to be active; conditions: tetra-acetylated histone H4 peptide, active = IC50 <30 μM
T1 construct: Illustrative results with the first bromodomain of Brd4; made in house; host or cells: E. coli BL21 (DE3)
Summary of the method: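 IC50 values come from dose-response curves of the 665 nm to 620 nm TR-FRET signal decrease, measured after 2 h at room temperature. Reactions contained 200 nM E. coli-expressed His-tagged bromodomain, 25-50 nM biotinylated tetra-acetylated H4 peptide, Eu-streptavidin plus XL665 anti-His antibody, with 30 mM HEPES pH 7.4, 320 mM KF and 0.2% DMSO.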

IL-6 activity (IC50 <30 μM) [1]	c-myc activity (IC50 <30 μM) [3]	Cell Proliferation activity (IC50 <30 μM) [4]	FRET activity (IC50 <30 μM) BRD4(1) [5]	SMILES	ApoA-1 activity (EC170 <30 μM) [2]
Not Active	Not Active	Not Active	Active	Cc1noc(C)c1-c1cc(C#N)c(=O)n(Cc2ccccc2)c1 [Example 198, 1-Benzyl-5-(3,5-dimethylisoxazol-4-yl)-2-oxo-1,2-dihydropyridine-3-carbonitrile]	Active
Active	Active	Active	Active	Cc1noc(C)c1-c1cc(N)c(=O)n(Cc2ccc(Cl)c(F)c2)c1 [Example 203, 3-amino-1-(4-chloro-3-fluorobenzyl)-5-(3,5-dimethylisoxazol-4-yl)pyridin-2(1H)-one]	Active
Active	Active	Active	Active	Cc1onc(CO)c1-c1cc(N)c(=O)n(Cc2ccc(Cl)cc2)c1 [Example 205, 3-Amino-1-(4-chlorobenzyl)-5-(3-(hydroxymethyl)-5-methylisoxazol-4-yl)pyridin-2(1H)-one]	Active
Active	Active	Active	Active	Cc1noc(C)c1-c1cc(N)c(=O)n(Cc2ccc(Cl)cc2F)c1 [Example 206, 3-amino-1-(4-chloro-2-fluorobenzyl)-5-(3,5-dimethylisoxazol-4-yl)pyridin-2(1H)-one]	Active
Active	Active	Active	Active	Cc1noc(C)c1-c1cc(N)c(=O)n(Cc2ccc(F)cc2Cl)c1 [Example 207, 3-amino-1-(2-chloro-4-fluorobenzyl)-5-(3,5-dimethylisoxazol-4-yl)pyridin-2(1H)-one]	Active
Active	Active	Active	Active	Cc1noc(C)c1-c1cc(NC2CCCC2)c(=O)n(Cc2ccccc2)c1 [Example 208, 1-benzyl-3-(cyclopentylamino)-5-(3,5-dimethylisoxazol-4-yl)pyridin-2(1H)-one]	Active
Active	Active	Active	Active	Cc1noc(C)c1-c1cc(O)c(=O)n(Cc2ccccc2)c1 [Example 209, 1-benzyl-5-(3,5-dimethylisoxazol-4-yl)-3-hydroxypyridin-2(1H)-one]	Active
Active	Active	Active	Active	COc1cc(-c2c(C)noc2C)cn(Cc2ccccc2)c1=O [Example 210, 1-benzyl-5-(3,5-dimethylisoxazol-4-yl)-3-methoxypyridin-2(1H)-one]	Active
Active	Active	Active	Active	Cc1noc(C)c1-c1cc(N)c(=O)n(Cc2ccc(F)c(F)c2)c1 [Example 211, 3-amino-1-(3,4-difluorobenzyl)-5-(3,5-dimethylisoxazol-4-yl)pyridin-2(1H)-one]	Active
Active	Active	Active	Active	Cc1noc(C)c1-c1cc(N)c(=O)n(Cc2ccc(F)c(Cl)c2)c1 [Example 212, 3-amino-1-(3-chloro-4-fluorobenzyl)-5-(3,5-dimethylisoxazol-4-yl)pyridin-2(1H)-one]	Active

The next lines start with the molecule.

SMILES	IL-6 activity (IC50 <30 μM) [1]	c-myc activity (IC50 <30 μM) [3]	Cell Proliferation activity (IC50 <30 μM) [4]	FRET activity (IC50 <30 μM) BRD4(1) [5]	ApoA-1 activity (EC170 <30 μM) [2]
CCNc1cc(-c2c(C)noc2C)cn(Cc2ccccc2)c1=O [Example 186, 1-benzyl-5-(3,5-dimethylisoxazol-4-yl)-3-(ethylamino)pyridin-2(1H)-one]	Active	Active	Active	Active	Active
Cc1onc(CO)c1-c1cc(N)c(=O)n(Cc2ccccc2)c1 [Example 189, 3-Amino-1-benzyl-5-(3-(hydroxymethyl)-5-methylisoxazol-4-yl)pyridin-2(1H)-one]	Active	Active	Active	Active	Active
Cc1noc(C)c1-c1cc(N2CCOCC2)c(=O)n(Cc2ccccc2)c1 [Example 190, 1-benzyl-5-(3,5-dimethylisoxazol-4-yl)-3-morpholinopyridin-2(1H)-one]	Not Active	Active	Active	Active	Active
Cc1noc(C)c1-c1cc(OCc2ccccc2)c(=O)n(Cc2ccccc2)c1 [Example 191, 1-benzyl-3-(benzyloxy)-5-(3,5-dimethylisoxazol-4-yl)pyridin-2(1H)-one]	Not Active	Active	Active	Active	Active
Cc1noc(C)c1-c1cc(NC(C)C)c(=O)n(Cc2ccccc2)c1 [Example 192, 1-benzyl-5-(3,5-dimethylisoxazol-4-yl)-3-(isopropylamino)pyridin-2(1H)-one]	Active	Active	Active	Active	Active
Cc1noc(C)c1-c1cc(Nc2ccccn2)c(=O)n(Cc2ccccc2)c1 [Example 193, 1-benzyl-5-(3,5-dimethylisoxazol-4-yl)-3-(pyridin-2-ylamino)pyridin-2(1H)-one]	Active	Not Active	Active	Not Active	Active
Cc1noc(C)c1-c1cc(Nc2cccnc2)c(=O)n(Cc2ccccc2)c1 [Example 194, 1-benzyl-5-(3,5-dimethylisoxazol-4-yl)-3-(pyridin-3-ylamino)pyridin-2(1H)-one]	Active	Active	Active	Active	Active
